In US20240174618A1, “SUBSTITUTED (2-HETEROARYLOXYPHENYL)SULFONATES, SALTS THEREOF AND THEIR USE AS HERBICIDAL AGENTS” (Bayer Aktiengesellschaft, priority 2021, published 2024):

Tests used:
Type in all cases: in vivo
Stellaria media (STEME) = test: B. Herbicidal post-emergence efficacy, STEME
Method in brief: (§1)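 Weeds grown in sandy loam in greenhouse and sprayed at the one-leaf stage, 2–3 weeks after sowing, with WP or EC formulations plus 0.5% additive at 600 L/ha water. Injury rated visually versus untreated controls after about 3 weeks (100% = dead, 0% = like control); rates up to 1280 g/ha.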

Veronica persica (VERPE) = test: B. Herbicidal post-emergence efficacy, VERPE
Method in brief: as §1

[1] = system: Amaranthus retroflexus (AMARE); test: B. Herbicidal post-emergence efficacy, AMARE
Method in brief: as §1

[2] = system: Alopecurus myosuroides (ALOMY); test: C. Herbicidal pre-emergence efficacy, ALOMY; settings: scored after about 3 weeks
Text: Seeds of monocotyledonous and dicotyledonous weed plants and crop plants were placed in plastic or organic planting pots and covered with soil. The compounds of the invention, formulated in the form of wettable powders (WP) or as emulsion concentrates (EC), were then applied to the surface of the covering soil as aqueous suspension or emulsion with addition of 0.5% additive at a water application rate equivalent to 600 l/ha (converted). After the treatment, the pots were placed in a greenhouse and kept under good growth conditions for the test plants. After about 3 weeks, the efficacy of the preparations was scored visually in comparison with untreated controls as percentages. For example, • 100% efficacy=plants have died, • 0% efficacy=like untreated control plants.
Tables C1a to C14b below show the effects of selected compounds of the general formula (I) according to table 1 on various harmful plants at an application rate corresponding to 320 g/ha or less, which were obtained by the experimental procedure mentioned above.

[3] = system: Abutilon theophrasti (ABUTH); test: E. Herbicidal post-emergence efficacy, ABUTH
Method in brief: (§2)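 Compounds applied at 320 g/ha or less as a foliar spray (600 l/ha, 0.5% additive) to one-leaf-stage greenhouse plants grown in sandy loam. Damage is visually scored in percent relative to untreated plants after about 3 weeks.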

[4] = system: Pharbitis purpurea (PHBPU); test: E. Herbicidal post-emergence efficacy, PHBPU
Method in brief: as §2

Viola tricolor (VIOTR) = test: E. Herbicidal post-emergence efficacy, VIOTR
Method in brief: as §2

[5] = system: Digitaria sanguinalis (DIGSA); test: A. Herbicidal pre-emergence efficacy, DIGSA; settings: scored visually after about 3 weeks vs untreated controls
Method in brief: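 Applied before emergence onto covering soil at rates of 1280 g/ha or less, using 600 L/ha spray water with 0.5% additive. Scoring: visual % efficacy after ~3 weeks, greenhouse.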

Structure (SMILES)	Post-emergence efficacy against STEME (Stellaria media (STEME); 80 g/ha)	Post-emergence efficacy against STEME (Stellaria media (STEME); 320 g/ha)	Post-emergence efficacy against STEME (Stellaria media (STEME); 1280 g/ha)	Post-emergence efficacy against VERPE (Veronica persica (VERPE); 80 g/ha)	Post-emergence efficacy against VERPE (Veronica persica (VERPE); 320 g/ha)	Post-emergence efficacy against VERPE (Veronica persica (VERPE); 1280 g/ha)	Post-emergence efficacy against AMARE ([1]; 80 g/ha)	Post-emergence efficacy against AMARE ([1]; 320 g/ha)	Post-emergence efficacy against AMARE ([1]; 1280 g/ha)	Pre-emergence efficacy against ALOMY ([2]; 80 g/ha)	Pre-emergence efficacy against ALOMY ([2]; 320 g/ha)	Post-emergence efficacy against ABUTH in % ([3]; application rate 320 g/ha)	Post-emergence efficacy against PHBPU in % ([4]; application rate 320 g/ha)	Post-emergence efficacy against VIOTR in % (Viola tricolor (VIOTR); application rate 320 g/ha)	Post-emergence efficacy against VIOTR in % (Viola tricolor (VIOTR); application rate 80 g/ha)	Post-emergence efficacy against ABUTH in % ([3]; application rate 80 g/ha)	Post-emergence efficacy against PHBPU in % ([4]; application rate 80 g/ha)	Pre-emergence efficacy against DIGSA ([5]; 80 g/ha)	Pre-emergence efficacy against DIGSA ([5]; 320 g/ha)	Pre-emergence efficacy against DIGSA ([5]; 1280 g/ha)
O=S(=O)(CCCCl)Oc1ccccc1Oc1ncc(Cl)cn1 [Example I-2]	90%	100%	100%	100%	100%	100%	100%	100%	100%	90%	100%	100%	100%	100%	–	–	–	–	–	–
CCCS(=O)(=O)Oc1ccccc1Oc1ncc(Cl)cn1 [Example I-3]	–	90%	100%	90%	100%	100%	90%	100%	100%	–	100%	–	90%	–	–	–	–	–	–	–
O=S(=O)(CCCCl)Oc1ccccc1Oc1ncc(F)cn1 [Example I-5]	100%	100%	100%	100%	100%	100%	100%	100%	100%	90%	100%	90%	80%	90%	80%	–	–	–	–	–
CCCCS(=O)(=O)Oc1ccccc1Oc1ncc(Cl)cn1 [Example I-6]	–	90%	90%	–	90%	90%	90%	100%	100%	80%	90%	90%	100%	90%	80%	80%	80%	–	–	–
CC(C)CS(=O)(=O)Oc1ccccc1Oc1ncc(Cl)cn1 [Example I-7, [2-(5-Chloropyrimidin-2-yl)oxyphenyl] 2-methylpropane-1-sulfonate]	–	90%	90%	–	–	–	–	90%	90%	90%	100%	100%	90%	90%	–	–	–	–	–	–
O=S(=O)(CCC(F)(F)F)Oc1ccccc1Oc1ncc(Cl)cn1 [Example I-8]	–	90%	90%	–	–	90%	90%	100%	100%	90%	100%	100%	100%	100%	80%	90%	–	–	–	–
O=S(=O)(CCl)Oc1ccccc1Oc1ncc(Cl)cn1 [Example I-9]	–	–	90%	–	–	100%	90%	100%	100%	–	80%	80%	–	80%	–	80%	–	–	–	–
O=S(=O)(CCCC(F)(F)F)Oc1ccccc1Oc1ncc(Cl)cn1 [Example I-10]	90%	90%	100%	–	–	–	90%	90%	100%	100%	100%	100%	100%	100%	90%	90%	100%	–	–	–
O=S(=O)(CCCCCl)Oc1ccccc1Oc1ncc(Cl)cn1 [Example I-15]	100%	100%	100%	100%	100%	100%	100%	100%	100%	–	90%	80%	100%	100%	90%	–	90%	–	–	–
CC(C)CCS(=O)(=O)Oc1ccccc1Oc1ncc(Cl)cn1 [Example I-25]	90%	100%	100%	100%	100%	100%	90%	100%	100%	–	80%	80%	90%	–	–	–	80%	90%	100%	100%
O=S(=O)(CCCC(F)(F)F)Oc1c(F)cccc1Oc1ncc(F)cn1 [Example I-42]	100%	100%	100%	–	–	–	–	–	–	100%	100%	100%	100%	100%	100%	80%	100%	100%	100%	100%
Cc1cccc(Oc2ncc(F)cn2)c1OS(=O)(=O)CCC(F)(F)F [Example I-45]	100%	100%	100%	–	–	–	–	–	–	–	100%	–	–	100%	90%	–	–	90%	100%	100%
Cc1cccc(Oc2ncc(F)cn2)c1OS(=O)(=O)CCCC(F)(F)F [Example I-46]	90%	100%	100%	–	–	–	–	–	–	–	100%	90%	90%	100%	90%	–	80%	90%	100%	100%
C=CCCS(=O)(=O)Oc1c(F)cccc1Oc1ncc(Cl)cn1 [Example I-50]	–	–	–	–	90%	90%	90%	90%	100%	–	90%	–	90%	100%	90%	–	90%	90%	90%	100%
COCCS(=O)(=O)Oc1c(F)cccc1Oc1ncc(Cl)cn1 [Example I-52]	–	–	90%	–	–	–	–	90%	90%	–	100%	–	–	80%	–	–	–	–	90%	100%
O=S(=O)(CCC(F)=C(F)F)Oc1c(F)cccc1Oc1ncc(Cl)cn1 [Example I-70]	–	–	–	–	–	–	–	–	–	–	100%	90%	100%	100%	100%	80%	80%	–	–	–
N#Cc1cccc(Oc2ncc(Cl)cn2)c1OS(=O)(=O)CCCC(F)(F)F [Example I-81]	–	–	–	–	–	–	–	–	–	–	90%	90%	100%	100%	100%	80%	90%	–	–	–
